Where a name gives a salt, the structure may show the parent alone.
Each compound was assayed against T1, human 5-HT6 receptor (Homo sapiens, UniProt P50406) (assay: 5-HT6 intrinsic activity assay (inhibition of 5-HT induced increase in cAMP)). Details: read-out: fKi.
T1 construct: expressed in transfected cells; host or cells: HEK293
Assay type: cell-based
Description: Briefly, HEK293/5-HT6 cells were seeded in polylysine coated 96-well plates at a density of 25,000/well and grown in DMEM (Dulbecco's Modified Eagle Medium) (without phenol-red) containing 5% dialyzed Foetal Bovine Serum for 48 h at 37° C. in a 5% CO2 incubator. The medium was then aspirated and replaced by 0.1 mL assay medium (Hanks Balance Salt Solution containing 20 mM HEPES, 1.5 mM isobutylmethylxanthine and 1 mg/mL bovine serum albumin). After addition of test substances, 50 μl dissolved in assay medium, the cells were incubated for 10 min at 37° C. in a 5% CO2 incubator. The medium was again aspirated and the cAMP content was determined using a radioactive cAMP kit (Amersham Pharmacia Biotech, BIOTRAK RPA559).
Table 4. Functional in vitro data at the h-5-HT receptor (fKi). Data are expressed as fKi,=IC50/(1+[5HT]/EC50).

T1 sequence (P50406 whole entry): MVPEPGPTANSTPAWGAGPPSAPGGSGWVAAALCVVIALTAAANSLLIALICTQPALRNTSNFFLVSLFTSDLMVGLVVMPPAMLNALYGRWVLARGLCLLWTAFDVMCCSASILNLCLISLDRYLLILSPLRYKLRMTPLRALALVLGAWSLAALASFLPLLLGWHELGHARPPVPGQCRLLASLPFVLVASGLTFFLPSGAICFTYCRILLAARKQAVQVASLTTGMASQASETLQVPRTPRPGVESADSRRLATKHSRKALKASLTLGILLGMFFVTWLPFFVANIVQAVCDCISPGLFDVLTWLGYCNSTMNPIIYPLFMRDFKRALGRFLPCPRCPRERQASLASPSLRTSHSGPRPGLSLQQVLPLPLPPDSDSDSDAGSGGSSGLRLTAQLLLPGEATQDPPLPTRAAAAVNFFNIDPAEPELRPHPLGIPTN

Row | SMILES | Ki [nM]
1 | COc1ccc(C)cc1S(=O)(=O)Nc1cc(C2=CN3CCC2CC3)c2occc2c1 [Example 33, N-[7-(1-Aza-bicyclo[2.2.2]oct-2-en-3-yl)-benzofuran-5-yl]-2-methoxy-5-methylbenzenesulfonamide hydrochloride] | 20
2 | COc1ccc(C)cc1S(=O)(=O)Nc1cc(-c2ccncc2)c2occc2c1 [Example 28, 2-Methoxy-5-methyl-N-(7-pyridin-4-yl-1-benzofuran-5-yl)benzenesulfonamide] | 66
3 | Fc1ccc(CNc2cc(N3CCNCC3)c3occc3c2)cc1F [Example 12, N-(3,4-Difluorobenzyl)-7-piperazin-1-yl-1-benzofuran-5-amine hydrochloride] | 87

Results, then the compound that gave them:

Row | Ki [nM] | SMILES
4 | 54 | O=S(=O)(Nc1cc(-c2cncnc2)c2occc2c1)c1ccccc1 [Example 32, N-(7-Pyrimidin-5-yl-1-benzofuran-5-yl)benzenesulfonamide hydrochloride]
5 | 87 | CNCCCN(C)c1cc(NS(=O)(=O)c2ccccc2)cc2ccoc12 [Example 1, N-(7-{Methyl[3-(methylamino)propyl]amino}-1-benzofuran-5-yl)benzenesulfonamide hydrochloride]

The compounds below were run against T1, human 5-HT6 receptor (assay: 5-HT6 binding assay ([3H]-LSD competition, SPA, membranes of transfected HEK293 cells)). Details: competitive binding, [3H]-LSD radioligand, Ki calculated from IC50 (Cheng).

Row | SMILES | Ki [nM]
6 | O=S(=O)(Nc1cccc2cc(C3=CN4CCC3CC4)oc12)c1ccccc1 [Example 36, N-[2-(1-Azabicyclo[2.2.2]oct-2-en-3-yl)-1-benzofuran-7-yl]benzenesulfonamide hydrochloride] | 20
7 | COc1ccc(C)cc1NS(=O)(=O)c1cc(CN2CCNC(C)C2)c2occc2c1 (stereo not shown) [Example 92, N-(2-Methoxy-5-methylphenyl)-7-[(3-methylpiperazin-1-yl)methyl]-1-benzofuran-5-sulfonamide hydrochloride] | 5.56
8 | COc1ccc(C)cc1S(=O)(=O)Nc1cc(CN2CCNCC2)c2occc2c1 [Example 54, 2-Methoxy-5-methyl-N-[7-(piperazin-1-ylmethyl)-1-benzofuran-5-yl]benzenesulfonamide hydrochloride] | 17.4
9 | COc1ccc(C)cc1S(=O)(=O)Nc1cc(O[C@H]2CCNC[C@H]2F)c2occc2c1 (relative stereo) [Example 84, N-(7-{[cis-3-Fluoropiperidin-4-yl]oxy}-1-benzofuran-5-yl)-2-methoxy-5-methylbenzenesulfonamide hydrochloride] | 7.5
10 | COc1ccc(C)cc1S(=O)(=O)Nc1cc(O[C@@H]2CCNC[C@H]2F)c2occc2c1 (relative stereo) [Example 85, N-(7-{[trans-3-Fluoropiperidin-4-yl]oxy}-1-benzofuran-5-yl)-2-methoxy-5-methylbenzenesulfonamide hydrochloride] | 7
11 | O=S(=O)(Nc1cc(O[C@@H]2CCNC[C@H]2F)c2occc2c1)c1cc(F)ccc1Cl (relative stereo) [Example 91, 2-Chloro-5-fluoro-N-(7-{[trans-3-fluoropiperidin-4-yl]oxy}-1-benzofuran-5-yl)benzenesulfonamide hydrochloride] | 56

Other lines, results leading:

Row | Ki [nM] | SMILES
12 | 5.3 | O=S(=O)(Nc1cc(O[C@@H]2CCNC[C@H]2F)c2occc2c1)c1ccccc1C(F)(F)F (relative stereo) [Example 87, N-(7-{[trans-3-Fluoropiperidin-4-yl]oxy}-1-benzofuran-5-yl)-2-(trifluoromethyl)benzenesulfonamide hydrochloride]
13 | 14 | Cc1cccc(S(=O)(=O)Nc2cc(O[C@@H]3CCNC[C@H]3F)c3occc3c2)c1 (relative stereo) [Example 89, N-(7-{[trans-3-Fluoropiperidin-4-yl]oxy}-1-benzofuran-5-yl)-3-methylbenzenesulfonamide hydrochloride]
14 | 13 | CCN1CCC[C@@H]1CNc1cc(NS(=O)(=O)c2ccccc2C(F)(F)F)cc2ccoc12 [Example 67, N-[7-({[(2R)-1-Ethylpyrrolidin-2-yl]methyl}amino)-1-benzofuran-5-yl]-2-(trifluoromethyl)benzenesulfonamide hydrochloride]
15 | 7 | O=S(=O)(Nc1cc(O[C@H]2CCNC[C@H]2F)c2occc2c1)c1ccccc1C(F)(F)F (relative stereo) [Example 86, N-(7-{[cis-3-Fluoropiperidin-4-yl]oxy}-1-benzofuran-5-yl)-2-(trifluoromethyl)benzenesulfonamide hydrochloride]

Same assay, conditions: over three experiments

Row | Hill coefficient | SMILES
16 | 0.94 (SD 0.09) | NCCc1c[nH]c2ccc(O)cc12 [Example 5-HT, 5-hydroxytryptamine, reference compound]

From patent US7820675B2, “Benzofuran compounds” (Biovitrum AB, priority 2003, dated 2010)
